No end group written: not given here.

This assay has as its system antibodies formed against human papillomavirus (HPV). The assay can be described thus: ELISA immunoassay of titer-plate-bound HPV peptides with subject serum (antibody-peptide complex, HRP anti-human IgG, TMB). The following applies: serum of Subject 6 (low pre-test probability, no HPV DNA detected), diluted 1:25; absorbance read at 450 nm. Format: binding. As for the experimental part: REACTI-BIND™ Maleic Anhydride Activated Polystyrene Plates (Pierce, Rockford, Ill.) may be employed. Each amino acid sequence may be diluted to 12.5 μg/mL with coating buffer (100 mM sodium bicarbonate buffer, pH 9.4). To each titer well, 100 μL (1.25 μg) of the diluted sequence solution may be added. The plate may then be incubated for one hour at room temperature with shaking. The plate may be emptied and residual liquid tapped onto a clean paper towel. Each well may be washed with 100 μL wash buffer (0.1% bovine serum albumin and 0.05% Tween-20 in phosphate buffered saline, pH 7.0). This may be repeated for a total of three times. Each time, the plate may be emptied and residual liquid tapped onto a clean paper towel. To each well, 200 μL of blocking solution (3% bovine serum albumin and 0.05% Tween-20 in phosphate buffered saline, pH 7.0) may be added.
Blocking solution may be left in each well for one minute. The titer plate may then be emptied by inversion. Filling with blocking solution and emptying may be done three times. Finished titer plates may be dried at room temperature and stored at 4° C. for up to four months.
For negative samples, serum may be obtained from virgin females, ages 14 and 15, and from adult sexually active, monogamous women, more than 25 years old, with histories of no Pap smear abnormalities and DNA verification of HPV absence. Positive samples consisted of serum obtained from females diagnosed with cervical cancer or precancerous disease. Subject and control sera may be diluted 1:25 with wash buffer (0.1% bovine serum albumin and […] in phosphate buffered saline, pH 7.0). To each well, 100 μL of diluted serum may be added, and the assay plate incubated for one hour at room temperature with shaking. Each well may then be rinsed three times, each with 200 μL wash buffer. Each rinse may be for five minutes. […]
The bottom of the titer plate may be cleaned with 70% ethanol, and the titer plate loaded into the spectrophotometer. Absorbance may be read at 450 nm, with […] of TMB solution plus […] of 2N HCl used as a blank control.
(ELISA stands for enzyme-linked immunosorbent assay.)
Take “HAGGQVILCPTSVFSSNEVSSPE [SEQ ID NO 3, 23 residues making up amino acids 187 through 209 of the HPV 16 E2 oncoprotein]”: the absorbance values amounted to 0.49.

In turn, “KHGYTVQFDGICNTMHY [SEQ ID NO 2, 17 residues making up amino acids 112 through 131 of the HPV 16 E2 oncoprotein]” registered an absorbance values of 0.32.

“Lys Gln Leu Gln His Thr Pro Ser Pro Tyr Ser Ser Thr Val Ser Val Gly Thr Ala Lys Thr Tyr [SEQ ID NO 1]” yielded an absorbance values of 0.44.
